Test results taken from patent US20180264080A1, “TOPICAL APPLICATIONS OF Kv1.3 CHANNEL BLOCKING PEPTIDES TO TREAT SKIN INFLAMMATION” (KINETA ONE, LLC, priority 2015, published 2018).

Experiment: Tissue penetration of topically applied peptide by immunohistochemistry (anti-ShK mAb P3B3) in rat pinna
Format: in vivo
Settings: 10 doses, rat pinna sections 48 hours post-challenge (DTH study)
Description: This example describes the method of detection of toxin-based therapeutic peptides of the disclosure, such as ShK-186 (SEQ ID NO:217) or ShK-198 (SEQ ID NO:210) penetration after topical administration.
Materials: All Bond reagents such Bond HIER 1 (Citrate), Bond HIER 2 (EDTA), Bond Primary antibody diluent, Bond dewax solution, Bond Wash solution, Bond Polymer Refine (DAB) detection rack including peroxide block, polymer/hematoxylin, Bond Alcohol and the Leica Bond Automated Immunostainer were purchased from Leica-microsystems.
ShK specific antibody: Hybridoma fusions were performed using the isolated splenocytes from ShK-186 immunized mice and clones producing specific monoclonal antibodies against ShK-186 and ShK-198 were isolated. These cultures were subjected to a second cloning process using the limited dilution method and selected for stable expression of the specific mAb. Stable clones were expanded, tested for antibody specificity to ShK-186 (and ShK parent) by ELISA, and their isotypes were identified using the Roche Isostrips and confirmed by ELISA. For ELISA testing, culture supernatants were diluted from 1:4-1:256 and the titer was determined to be the last dilution 2 standard deviations above background. Clone P3B3-G11-C12 is purified from hybridoma extinction cultures and concentrated to 1 mg/ml. […]

| Substance | Tissue penetration of the peptide into rat pinna (dark staining with ShK specific monoclonal antibody P3B3) (1% solution of ShK-186, topical) | Tissue penetration of the peptide into rat pinna (dark staining with ShK specific monoclonal antibody P3B3) (5% solution of ShK-198, topical) |
| --- | --- | --- |
| (L-PhosphoTyr)-AEEAc-RSCIDTIPKSRCTAFQCKHSMKYRLSFCRKTCGTC-amide [ShK-186] | perfuse and extensive penetration | – |
| (L-Tyr)-AEEAc-RSCIDTIPKSRCTAFQCKHSMKYRLSFCRKTCGTC-amide [ShK-198] | – | perfuse and extensive penetration |
